From patent US9951128B2, “Caninized anti-NGF antibodies and methods thereof” (ZOETIS SERVICES LLC, priority 2012, dated 2018)

Experiment: Mean group body weight in the rat MIA study
Format: in vivo, Rat Ola Wistar
Details: morphine 10 mg/kg SC, mAbs 8 mg/kg SC
From the text: Mean group body weight for all groups (g).

CN1CC[C@]23c4c5ccc(O)c4O[C@H]2[C@@H](O)C=C[C@H]3[C@H]1C5 [Morphine]
Mean group body weight, Baseline: 178.5 g
Mean group body weight, Day 7: 256.2 g
Mean group body weight, Day 14: 285.1 g
Mean group body weight, Day 21: 300.6 g
Mean group body weight, Day 27: 316 g
